≈ marks a conversion by molar mass, not a printed value.

One series can be described thus: In-vitro clearance in rat liver microsomes (metabolic stability, compound depletion).
Details: not given
(In general: Liver microsomes are vesicles of endoplasmic reticulum, rich in cytochrome P450 enzymes.)
Consider `COC(=O)N1CC[C@@H]2[C@H]1CCC[C@]2(C#Cc1cccc(C)c1)OC(=O)[C@@H](N)CCSC` [Example 6, (3aR,4S,7aR)-4-((S)-2-Amino-4-methylsulfanyl-butyryloxy)-4-m-tolylethynyl-octahydro-indole-1-carboxylic acid methyl ester], for which the microsomal CLint (commonly a measure of how fast metabolising enzymes remove a compound, apart from limits set by blood flow) at 1 μM was 51 µL/min/mg.
Still for that read-out and setting: with `COC(=O)N1CC[C@@H]2[C@H]1CCC[C@]2(C#Cc1cccc(C)c1)OC(=O)Cc1ccccc1` [Example 43, (3aR,4S,7aR)-methyl 4-(2-phenylacetoxy)-4-(m-tolylethynyl)octahydro-1H-indole-1-carboxylate] the figure was 36 µL/min/mg; with `COC(=O)N1CC[C@@H]2[C@H]1CCC[C@]2(C#Cc1cccc(C)c1)OC(=O)c1c(C)cc(C)cc1C` [Example 53, (3aR,4S,7aR)-methyl 4-(m-tolylethynyl)-4-(2,4,6-trimethylbenzoyloxy)octahydro-1H-indole-1-carboxylate], 3.4 µL/min/mg; with `CC[C@H](N)C(=O)O[C@@]1(C#Cc2cccc(C)c2)CCC[C@@H]2[C@H]1CCN2C(=O)OC` [Example 30, (3aR,4S,7aR)-4-((S)-2-Amino-butyryloxy)-4-m-tolylethynyl-octahydro-indole-1-carboxylic acid methyl ester], 375 µL/min/mg.
The compound `CC[C@H](C)[C@H](N)C(=O)O[C@@]1(C#Cc2cccc(C)c2)CCC[C@@H]2[C@H]1CCN2C(=O)OC` [Example 33, (3aR,4S,7aR)-4-((2S,3S)-2-Amino-3-methyl-pentanoyloxy)-4-m-tolylethynyl-octahydro-indole-1-carboxylic acid methyl ester] registered a microsomal CLint at 1 μM of 660 µL/min/mg.
Consider `COC(=O)N1CC[C@@H]2[C@H]1CCC[C@]2(C#Cc1cccc(C)c1)OC(=O)[C@@H](N)CC(C)(C)C` [Example 34, (3aR,4S,7aR)-4-((S)-2-Amino-4,4-dimethyl-pentanoyloxy)-4-m-tolylethynyl-octahydro-indole-1-carboxylic acid methyl ester], for which the microsomal CLint at 1 μM was 495 µL/min/mg.
Same read-out and setting: with `COC(=O)N1CC[C@@H]2[C@H]1CCC[C@]2(C#Cc1cccc(C)c1)OC(=O)c1cccc(C)c1` [Example 46, (3aR,4S,7aR)-methyl 4-(3-methylbenzoyloxy)-4-(m-tolylethynyl)octahydro-1H-indole-1-carboxylate] the figure was 4.4 µL/min/mg.
Still for that read-out and setting: the figure for `COC(=O)N1CC[C@@H]2[C@H]1CCC[C@]2(C#Cc1cccc(C)c1)OC(=O)[C@@H](N)CC(C)C` [Example 5, (3aR,4S,7aR)-4-((S)-2-Amino-4-methyl-pentanoyloxy)-4-m-tolylethynyl-octahydro-indole-1-carboxylic acid methyl ester] is 48 µL/min/mg; for `COC(=O)N1CC[C@@H]2[C@H]1CCC[C@]2(C#Cc1cccc(C)c1)OC(=O)c1ccc(Br)cc1` [Example 48, (3aR,4S,7aR)-methyl 4-(4-bromobenzoyloxy)-4-(m-tolylethynyl)octahydro-1H-indole-1-carboxylate] it is 26 µL/min/mg.
`CC[C@H](C)[C@H](NC)C(=O)O[C@@]1(C#Cc2cccc(C)c2)CCC[C@@H]2[C@H]1CCN2C(=O)OC` [Example 37, (3aR,4S,7aR)-4-((2S,3S)-3-Methyl-2-methylamino-pentanoyloxy)-4-m-tolylethynyl-octahydro-indole-1-carboxylic acid methyl ester] had an intrinsic clearance (microsomal CLint) at 1 μM of 693 µL/min/mg.

The nature of a further series: Solubility in Cl free phosphate buffer pH 6.8. The class given is physicochemical. To be noted: aqueous buffer; Cl free phosphate buffer (0.067 M) pH 6.8.
With `COC(=O)N1CC[C@@H]2[C@H]1CCC[C@]2(C#Cc1cccc(C)c1)OC(=O)CCC(=O)N(C)C` [Example 59, (3aR,4S,7aR)-methyl 4-(4-(dimethylamino)-4-oxobutanoyloxy)-4-(m-tolylethynyl)octa hydro-1H-indole-1-carboxylate], the solubility (as a rule, the concentration that dissolves in the medium under given conditions) is below 2 µg/mL.
Consider `CCCNC(=O)CCCC(=O)O[C@@]1(C#Cc2cccc(C)c2)CCC[C@@H]2[C@H]1CCN2C(=O)OC` [Example 70, (3aR,4S,7aR)-methyl 4-(5-oxo-5-(propylamino)pentanoyloxy)-4-(m-tolylethynyl)octahydro-1H-indole-1-carboxylate], for which the solubility was found to be 32 µg/mL (≈ 68.3 µM).
Same read-out and setting: the figure for `COC(=O)N1CC[C@@H]2[C@H]1CCC[C@]2(C#Cc1cccc(C)c1)OC(=O)CC(N)=O` [Example 60, (3aR,4S,7aR)-methyl 4-(3-amino-3-oxopropanoyloxy)-4-(nm-tolylethynyl)octahydro-1H-indole-1-carboxylate] is 110 µg/mL (≈ 276 µM); for `COC(=O)N1CC[C@@H]2[C@H]1CCC[C@]2(C#Cc1cccc(C)c1)OC(=O)CCCC(N)=O` [Example 55, (3aR,4S,7aR)-methyl 4-(5-amino-5-oxopentanoyloxy)-4-(m-tolylethynyl)octahydro-1H-indole-1-carboxylate] it is 93 µg/mL (≈ 218 µM).
In turn, `CCCC(=O)O[C@@]1(C#Cc2cccc(C)c2)CCC[C@@H]2[C@H]1CCN2C(=O)OC` [Example 15, (3aR,4S,7aR)-4-Butyryloxy-4-m-tolylethynyl-octahydro-indole-1-carboxylic acid methyl ester] displayed a solubility of 2 µg/mL (≈ 5.22 µM).
The same measure, in the same setting: the figure for `CCNC(=O)CCC(=O)O[C@@]1(C#Cc2cccc(C)c2)CCC[C@@H]2[C@H]1CCN2C(=O)OC` [Example 67, (3aR,4S,7aR)-methyl 4-(4-(ethylamino)-4-oxobutanoyloxy)-4-(m-tolylethynyl)octahydro-1H-indole-1-carboxylate] is 123 µg/mL (≈ 279 µM); for `COC(=O)CCC(=O)O[C@@]1(C#Cc2cccc(C)c2)CCC[C@@H]2[C@H]1CCN2C(=O)OC` [Example 62, ((3aR,4S,7aR)-1-(methoxycarbonyl)-4-(m-tolylethynyl)octahydro-1H-indol-4-ylmethyl succinate] it is 164 µg/mL; for `CNC(=O)CC(=O)O[C@@]1(C#Cc2cccc(C)c2)CCC[C@@H]2[C@H]1CCN2C(=O)OC` [Example 61, (3aR,4S,7aR)-methyl 4-(3-(methylamino)-3-oxopropanoyloxy)-4-(m-tolylethynyl)octahydro-1H-indole-1-carboxylate] it is 11 µg/mL (≈ 26.7 µM).
Compound `CCCNC(=O)CCC(=O)O[C@@]1(C#Cc2cccc(C)c2)CCC[C@@H]2[C@H]1CCN2C(=O)OC` [Example 64, (3aR,4S,7aR)-methyl 4-(4-oxo-4-(propylamino)butanoyloxy)-4-(m-tolylethynyl)octahydro-1H-indole-1-carboxylate] displayed a solubility of 33 µg/mL (≈ 72.6 µM).
For `CCCCC(=O)O[C@@]1(C#Cc2cccc(C)c2)CCC[C@@H]2[C@H]1CCN2C(=O)OC` [Example 22, (3aR,4S,7aR)-4-Pentanoyloxy-4-m-tolylethynyl-octahydro-indole-1-carboxylic acid methyl ester], the solubility was below 2 µg/mL.
`COC(=O)N1CC[C@@H]2[C@H]1CCC[C@]2(C#Cc1cccc(C)c1)OC(=O)CCC(=O)N1CCCC1` [Example 38, (3aR,4S,7aR)-4-(4-Oxo-4-pyrrolidin-1-yl-butyryloxy)-4-m-tolylethynyl-octahydro-indole-1-carboxylic acid methyl ester]: the solubility turned out to be 27 µg/mL (≈ 57.9 µM).
In turn, `COC(=O)CC(=O)O[C@@]1(C#Cc2cccc(C)c2)CCC[C@@H]2[C@H]1CCN2C(=O)OC` [Example 66, (3aR,4S,7aR)-1-(methoxycarbonyl)-4-(m-tolylethynyl)octahydro-1H-indol-4-yl methyl malonate] yielded a solubility of 100 µg/mL (≈ 242 µM).
`COCC(=O)O[C@@]1(C#Cc2cccc(C)c2)CCC[C@@H]2[C@H]1CCN2C(=O)OC` [Example 10, (3aR,4S,7aR)-4-(2-Methoxy-acetoxy)-4-m-tolylethynyl-octahydro-indole-1-carboxylic acid methyl ester] returned a solubility of 47 µg/mL (≈ 122 µM).
On the same count and under the same terms, with `COC(=O)N1CC[C@@H]2[C@H]1CCC[C@]2(C#Cc1cccc(C)c1)OC(C)=O` [Example 13, (3aR,4S,7aR)-4-Acetoxy-4-m-tolylethynyl-octahydro-indole-1-carboxylic acid methyl ester] the figure was 12 µg/mL (≈ 33.8 µM); with `CNC(=O)CCC(=O)O[C@@]1(C#Cc2cccc(C)c2)CCC[C@@H]2[C@H]1CCN2C(=O)OC` [Example 58, (3aR,4S,7aR)-methyl 4-(4-(methylamino)-4-oxobutanoyloxy)-4-(m-tolylethynyl)octahydro-1H-indole-1-carboxylate], 87 µg/mL (≈ 204 µM).
With `COC(=O)N1CC[C@@H]2[C@H]1CCC[C@]2(C#Cc1cccc(C)c1)OC(=O)CCCC(=O)NC(C)C` [Example 69, (3aR,4S,7aR)-methyl 4-(5-(isopropylamino)-5-oxopentanoyloxy)-4-(m-tolylethynyl)octahydro-1H-indole-1-carboxylate], the solubility was determined as 28 µg/mL (≈ 59.8 µM).
On the same count and under the same terms, with `COC(=O)CCCC(=O)O[C@@]1(C#Cc2cccc(C)c2)CCC[C@@H]2[C@H]1CCN2C(=O)OC` [Example 56, (3aR,4S,7aR)-1-(methoxycarbonyl)-4-(m-tolylethynyl)octahydro-1H-indol-4-yl methyl glutarate] the figure was 97 µg/mL (≈ 220 µM); with `CCCCCCCC(=O)O[C@@]1(C#Cc2cccc(C)c2)CCC[C@@H]2[C@H]1CCN2C(=O)OC` [Example 18], below 2 µg/mL.
As for `CCN(CC)C(=O)CCC(=O)O[C@@]1(C#Cc2cccc(C)c2)CCC[C@@H]2[C@H]1CCN2C(=O)OC` [Example 57, (3aR,4S,7aR)-methyl 4-(4-(diethylamino)-4-oxobutanoyloxy)-4-(m-tolylethynyl)octahydro-1H-indole-1-carboxylate], the solubility amounted to 19 µg/mL (≈ 40.5 µM).
The same measure, in the same setting: the figure for `CCNC(=O)CCCC(=O)O[C@@]1(C#Cc2cccc(C)c2)CCC[C@@H]2[C@H]1CCN2C(=O)OC` [Example 68, (3aR,4S,7aR)-methyl 4-(5-(ethylamino)-5-oxopentanoyloxy)-4-(m-tolylethynyl)octahydro-1H-indole-1-carboxylate] is 386 µg/mL (≈ 849 µM); for `CCCCCC(=O)O[C@@]1(C#Cc2cccc(C)c2)CCC[C@@H]2[C@H]1CCN2C(=O)OC` [Example 17, (3aR,4S,7aR)-4-Hexanoyloxy-4-m-tolylethynyl-octahydro-indole-1-carboxylic acid methyl ester] it is below 2 µg/mL.

Values taken from patent US9067881B2, “4-tolyl-ethynyl-octahydro-indole-1-ester derivatives” (NOVARTIS AG, priority 2011, dated 2015).
